Patent publication US9359196B2, “Antiproliferative compositions comprising curcumin analogs and methods of producing and using same” (The Board of Regents of the University of Oklahoma, priority 2009, dated 2016)

Key:
H441 cells = assay: GSH/GSSG assay in H441 cells; format: cell-based, human; conditions: 12 and 24 h
Procedure: Glutathione-to-glutathione disulfide (GSH/GSSG) assay: In order to assess the effect of CLEFMA on cellular GSH levels, a kit from Oxford Biomedical Research (Oxford, Mich.) was used and followed a modification of the method reported elsewhere (NCL Method GTA-3, Nanotechnology Characterization Lab, Frederick, Md.). H441 were seeded in a 12-well plate (1 million cells/well) and treated with CLEFMA for 12 and 24 h. The medium was removed and the cell layer was washed twice with ice-cold PBS. After adding 100 μl of ice-cold 5% m-phosphoric acid, the cells were scraped into a microfuge tube and centrifuged at 1000×g at 4° C. for 10 min. The supernatant was removed to a fresh tube for the GSSG and GSH assays. For the GSSG determination, approximately 30 μl supernatant was mixed with 20 μl thiol scavenger and 130 μl ice-cold assay buffer, and for the GSH assay, approximately 5 μl of the supernatant was diluted in 180 μl with ice-cold assay buffer. […] The plate was read in a microplate reader at 405-414 nm at 0 and 10 min after DTNB was added. The GSH and GSSG concentrations were determined following a linear regression analysis and normalized to total protein. The ratio (GSH−2GSSG)/GSSG was calculated and expressed as the percent of untreated control cells.

[1] = Octanol-water partition coefficient (pre-formulation); format: physicochemical
Source text: The pre-formulation studies on CLEFMA depicted it as a highly hydrophobic drug with octanol-water partition coefficient of 5.66. It was hypothesized that liposomes might serve as a vehicle for CLEFMA preparation meant for parenteral administration. Parenteral liposome formulations of lipophilic drugs are challenging. Incorporation of a lipid-partitioning drug in liposomes may produce structurally instable liposomes, resulting in burst-release of drug, rapid clearance from the body, and/or overall poor efficacy. The entrapment of cyclodextrin (CD)-based inclusion complexes (IC) inside the liposomes can be a reliable and effective method of encapsulation of hydrophobic drugs. This strategy was first reported by Gregoriades [McCormack et al., 1994], and has recently been used for the encapsulation of isotretinoin [Kaur et al., 2010].

[2] = test system: normal lung fibroblasts LL-24; assay: In vitro anti-proliferative activity in normal lung fibroblasts LL-24; format: cell-based; conditions: LL-24, identical treatment conditions (10 μM, 24 h)
Procedure: Human lung adenocarcinoma cell line NCI-H441 (ATCC # HTB-174) and normal lung fibroblasts LL-24 (ATCC #CCL-151) were obtained from American Type Culture Collection (Manassas, Va.). The cells were maintained at 37° C. with 5% CO2 in RPMI 1640 medium (Invitrogen, Carlsbad, Calif.). The medium was supplemented with 10% heat-inactivated fetal bovine serum and 50 μg/ml of gentamicin (GIBCO Laboratories, Grand Island, N.Y.). For cell proliferation assay, the cells were seeded in 96-well flat-bottom tissue culture plates at a density of 0.5−1×10^4 cells per well. The cells were allowed to adhere and grow overnight, followed by treatment with CLEFMA or CLEFMA-liposomes. The concentration of CLEFMA was maintained in the range of 0.1-25 μM in 100 μl of RPMI 1640 medium. For comparison, the cells were also treated with 1 and 10 μM natural curcumin and EF24. EF24 is a potent synthetic curcuminoid and a close analog of CLEFMA [Adams et al., 2004]. All solutions of plain drugs were made in dimethylsulfoxide (DMSO). The concentration of DMSO in the treatment medium was maintained at 0.1%. The control wells received equivalent amounts of DMSO or phospholipid-matched control liposomes. Inhibition of cell proliferation was determined by measuring a decrease in hexosaminidase activity as described by Landegren [Landegren, 1984]. […]

[3] = test system: Human lung adenocarcinoma cell line NCI-H441; assay: In vitro anti-proliferative activity in H441 cells (hexosaminidase), Example 2; format: cell-based
Procedure: Human lung adenocarcinoma cell line NCI-H441 (ATCC # HTB-174) and normal lung fibroblasts LL-24 (ATCC #CCL-151) were obtained from American Type Culture Collection (Manassas, Va.). The cells were maintained at 37° C. with 5% CO2 in RPMI 1640 medium (Invitrogen, Carlsbad, Calif.). The medium was supplemented with 10% heat-inactivated fetal bovine serum and 50 μg/ml of gentamicin (GIBCO Laboratories, Grand Island, N.Y.). For cell proliferation assay, the cells were seeded in 96-well flat-bottom tissue culture plates at a density of 0.5−1×10^4 cells per well. The cells were allowed to adhere and grow overnight, followed by treatment with CLEFMA or CLEFMA-liposomes. The concentration of CLEFMA was maintained in the range of 0.1-25 μM in 100 μl of RPMI 1640 medium. For comparison, the cells were also treated with 1 and 10 μM natural curcumin and EF24. EF24 is a potent synthetic curcuminoid and a close analog of CLEFMA [Adams et al., 2004]. All solutions of plain drugs were made in dimethylsulfoxide (DMSO). The concentration of DMSO in the treatment medium was maintained at 0.1%. The control wells received equivalent amounts of DMSO or phospholipid-matched control liposomes. Inhibition of cell proliferation was determined by measuring a decrease in hexosaminidase activity as described by Landegren [Landegren, 1984]. Para-nitrophenol-N-acetyl-beta-D-glucosaminide (60 μl per well) was used as the substrate for the hexosaminidase enzyme. The results of hexosaminidase assay were also confirmed by visualization of cultured cells under a microscope.

[4] = test system: MiaPaCa-2 (pancreatic cancer) cells; assay: Cell proliferation study in MiaPaCa-2 cells; format: cell-based
Procedure: Cell Culture and drug treatment: Human lung adenocarcinoma cell line NCI-H441 (ATCC Number: HTB-174) was obtained from the American Type Culture Collection (Manassas, Va.). H441 cells were maintained at 37° C. with 5% CO2 in McCoy's 5A Medium (Invitrogen, Carlsbad, Calif.) supplemented with 5% heat-inactivated fetal bovine serum (FBS). All media contained gentamicin at 50 μg/ml (GIBCO Laboratories, Grand Island, N.Y.). Other cells lines (PANC-1, MiaPaCa-2 and PC-3) were also similarly maintained, except that the cell culture medium was RPMI 1640 instead of McCoy's.
To evaluate the anti-proliferative activity of synthesized bis(2-fluorobenzylidene)-4-piperidone and its derivatives, the cells were seeded in 96-well flat-bottom tissue culture plates at a density of 10×10^3 cells per well. The cells were allowed to attach and grow overnight. The test compounds were solubilized in dimethyl sulfoxide (DMSO), filtered through 0.2 μm nylon filter and added to cells at 1, 10, 25 and 100 μM concentrations in culture medium supplemented with 5% FBS. […]
Cell Proliferation: The total number of cells after the treatment period was estimated by the hexosaminidase assay. […] The absorbance was measured at 405 nm. […] The data were analyzed as percent of control, where the control wells were treated with equivalent amounts of DMSO alone, and the analyzed data was presented as average±standard error of mean. […]

O=C(O)C=CC(=O)N1CC(=Cc2ccccc2Cl)C(=O)C(=Cc2ccccc2Cl)C1 [Compound 29, 4-[3,5-Bis-(2-chlorobenzylidene)-4-oxo-piperidin-1-yl]-4-oxo-2-butenoic acid]
GSH/GSSG ratio (H441 cells): strong dose-dependent reduction of the GSH/GSSG ratio
octanol-water partition coefficient [1]: 5.66
effect on normal lung fibroblasts [2]: essentially remained unscathed
anti-proliferative activity in H441 cells [3]: more potent than curcumin and another synthetic curcuminoid EF24
H441 cells surviving ([3]; 24 h treatment with 10 μM): Less than 40%
potency of antiproliferative action [4]: enhanced the potency of antiproliferative action
